Earlier results, collected in patent US6972133B1, “Degradable animal chewing article possessing enhanced safety, durability and mouth-feel” (Seefar Technologies, Inc., priority 1999, dated 2005).

Assays:
[1] = test system: fungi (including yeast) and algae; conditions: most active against fungi (including yeast) and algae

Row | SMILES | anti-microbial activity [1] | solubility in dilute alkali solution (dilute alkali solution) | solubility in ethanol (ethanol) | solubility in water (water, unmodified triclosan) | LD50 oral toxicity (dogs) [mg/kg]
1 | Cc1ccc(S(=O)(=O)C(I)I)cc1 [DIMTS, diiodomethyl-p-tolylsulphone] | broad spectrum of anti-microbial activity |  |  |  | 
2 | Oc1cc(Cl)ccc1Oc1ccc(Cl)cc1Cl [triclosan, 2,4,4″-trichloro-2-hydroxydiphenylether] |  | sparingly soluble | soluble | insoluble | > 5000
